Measured values: patent US20260124226A1 (priority 2023, published 2026)
“And” between values parts separate entries of the source, which are not always exact repeats. Identical values can stand only once. Like-named read-outs stand apart in the source and are kept apart here.

Columns and labels:
HRV-14 = experiment: microbe, parasite or virus in culture; format: cell-based, human rhinovirus
VEEV = experiment: microbe, parasite or virus in culture; format: cell-based, Venezuelan equine encephalitis virus; details: Venezuelan equine encephalitis virus
Pichinde virus = experiment: microbe, parasite or virus in culture; format: cell-based; details: Vero
ZIKV = experiment: microbe, parasite or virus in culture; format: cell-based, Zika virus; details: Zika virus, Vero 76
Poliovirus = experiment: microbe, parasite or virus in culture; format: cell-based; details: Vero 76 cells
Punta Toro virus = experiment: microbe, parasite or virus in culture; format: cell-based
EBOV = experiment: microbe, parasite or virus in culture; format: cell-based, Ebola virus; details: Zaire ebolavirus, Vero
Plasma stability [1] = details: rat plasma, drug 1.00 μM
Flu A H5N1 (Low Path) = experiment: microbe, parasite or virus in culture; format: cell-based, influenza A virus; details: Influenza A virus, H5N1, MDCK
Huh-7 = experiment: EIDD-2749 cytotoxicity; format: cell-based, human; details: Huh-7 cells
HG23 cells = experiment: Cytotoxicity (CC50) run with the norovirus assay
CEM = experiment: EIDD-2749 cytotoxicity; format: cell-based; details: CEM cells
BxPc3 = experiment: EIDD-2749 cytotoxicity; format: cell-based; details: BxPc3 cells
Murine Norovirus = experiment: microbe, parasite or virus in culture; format: cell-based; details: Norwalk virus, RAW264.7
Tacaribe virus = experiment: microbe, parasite or virus in culture; format: cell-based; details: for EC50: Tacaribe virus strain TRVL 11573, Vero cells
[2] = CD-1, mouse, microsomes
Enterovirus-68 = experiment: microbe, parasite or virus in culture; format: cell-based, EV-D68
[3] = male, Sprague-Dawley, rat, microsomes, pH 7.4
Vero E6 cells = details: African green monkey
Huh-7 cells = details: human
MDCK cells = details: dog
Flu A H3N2 = experiment: microbe, parasite or virus in culture; format: cell-based, influenza A virus; details: Influenza A virus, H3N2, MDCK
H9c-2 = experiment: EIDD-2749 cytotoxicity; format: cell-based; details: H9c-2 cells
Influenza A H1N1 = experiment: microbe, parasite or virus in culture; format: cell-based, influenza A virus; details: Influenza A virus, H1N1, MDCK
MERS = experiment: microbe, parasite or virus in culture; format: cell-based, MERS coronavirus; details: Middle East respiratory syndrome-related coronavirus, Vero 76
A-204 = experiment: EIDD-2749 cytotoxicity; format: cell-based; details: A-204 cells
Marburg virus = experiment: microbe, parasite or virus in culture; format: cell-based; details: Filoviridae, Vero
Marpol virus = experiment: organism not typed; format: cell-based
MA-104 cells = details: African green monkey
CHIKV = experiment: microbe, parasite or virus in culture; format: cell-based, Chikungunya virus
[4] = system: Severe fever thrombocytopenia syndrome virus; experiment: organism not typed; format: cell-based; details: Vero
EEEV = experiment: microbe, parasite or virus in culture; format: cell-based, Eastern equine encephalitis virus
Plasma stability [5] = details: human plasma, drug 1.00 μM, 37° C.
Lassa fever virus = experiment: organism not typed; format: cell-based; details: Vero
WEEV = experiment: microbe, parasite or virus in culture; format: cell-based, Western equine encephalitis virus; details: Vero76 cells
Heartland virus = experiment: microbe, parasite or virus in culture; format: cell-based; details: Vero
Plasma stability [6] = details: mouse plasma, drug 1.00 μM
DENV2 = experiment: microbe, parasite or virus in culture; format: cell-based, Dengue virus 2; details: Dengue virus, DENV2, Huh-7
Parainfluenza virus 3 = experiment: organism not typed; format: cell-based
Vero cells = details: African green monkey
[7] = Mammarenavirus tacaribeense, Vero

O=c1ccn([C@@H]2O[C@](F)(CO)[C@@H](O)[C@H]2O)c(=O)[nH]1 [EIDD-2749, 4′-fluorouridine]
EC50 (HRV-14): 1.14 µM
EC50 (HRV-14; Rhinovirus B, HRV14): 1.22 µM
EC90 (VEEV; Vero 76): 213 µM
EC50 (VEEV; Vero 76, VEEV strain TC-83, Vero 76 cells): 7.6 µM
EC90 (Pichinde virus): 0.19 µM
EC90 (ZIKV): > 380 µM
EC50 (Poliovirus; Enterovirus C, Vero 76, Poliovirus strain Mahoney): 12.2 µM
EC50 (Poliovirus; Poliovirus strain Mahoney): 11.8 µM
EC50 (Punta Toro virus): 91.2 µM
EC50 (Punta Toro virus; Punta Toro virus, Vero 76): 72.2 µM
EC50 (EBOV): 1.52 µM
EC90 (EBOV): 22 µM
half-life (Plasma stability [1]): 22 min
EC50 (Flu A H5N1 (Low Path)): < 0.38 µM
CC50 (Huh-7): > 400 µM
CC50 (HG23 cells): 100 µM
CC50 (CEM): 107 µM
CC50 (BxPc3): > 400 µM
EC50 (Murine Norovirus): 2.2 µM
EC90 (Murine Norovirus): 7.2 µM
EC90 (Tacaribe virus; [7]): 0.87 µM
EC50 (Tacaribe virus; [7]): < 0.38 µM
EC50 (Tacaribe virus): 0.34 µM
half-life [2]: 27 min
EC50 (Enterovirus-68): 11.8 µM
EC50 (Enterovirus-68; Enterovirus D, RD): 13.7 µM
half-life [3]: 25 min
CC50 (Vero E6 cells): > 380 µM
CC50 (Huh-7 cells): > 380 µM
CC50 (MDCK cells): > 380 µM
EC50 (Flu A H3N2): < 0.38 µM
CC50 (H9c-2): > 400 µM
EC50 (Influenza A H1N1): < 0.38 µM
EC50 (MERS): > 380 µM
CC50 (A-204): > 400 µM
EC50 (Marburg virus): > 380 µM
EC50 (Marpol virus): 57 µM
EC50 (Marpol virus; Vero C1008): 95 µM
CC50 (MA-104 cells): > 380 µM
EC50 (CHIKV): 2.05 µM and 3.42 µM
EC50 (CHIKV; Chikungunya virus, Vero 76): 1.98 µM
EC90 (CHIKV; Chikungunya virus, Vero 76): 9.12 µM
EC90 [4]: > 380 µM
EC50 (EEEV; EEEV strain FL93-939, Vero76 cells): > 380 µM
EC50 (EEEV; Eastern equine encephalitis virus, Vero 76, EEEV strain FL93-939, Vero76 cells): 380 µM
half-life (Plasma stability [5]): 26 min
EC50 (Lassa fever virus): 0.38 µM
EC90 (Lassa fever virus): 9 µM
EC50 (WEEV; WEEV strain California): 11.8 µM
EC50 (WEEV; Western equine encephalitis virus, Vero 76, WEEV strain California): 9.88 µM
EC90 (Heartland virus): 122 µM
half-life (Plasma stability [6]): 37 min
EC50 (DENV2): > 380 µM
EC50 (Parainfluenza virus 3): 60.8 µM
EC50 (Parainfluenza virus 3; MA104): 98.8 µM
CC50 (Vero cells): > 380 µM
